Reference: patent US20140314780A1, “Compositions Using Antibodies Directed to GPNMB and Uses Thereof” (Celldex Therapeutics, Inc., priority 2008, published 2014)
Entries after “also recorded” stand apart in the source; their conditions may differ.

Columns and labels:
Format in all cases: cell-based, human
GPNMB = assay: Immunoblotting for GPNMB on whole-cell lysates of cancer cell lines after drug exposure; conditions: for increase of GPNMB expression in the screen: determined by immunoblotting and/or flow cytometry analysis; for GPNMB expressed after protein synthesis inhibition: 1 hour, absence of ammonium chloride (FIG. 6D)
Description: Cancer cell lines were of human origin and were obtained from the American Type Culture Collection (Manassas, Va.) and from the National Cancer Institute (Bethesda, Md.) and cultured in RPMI-1640 supplemented with 10% FBS (growth media). Sources of reagents were as follows: RAFKi (553013), MEKi (U0126), MEKi (PD98059), MEKi (444939), ERKi (FR180204), p38 MAPKi (SB202190), p38 MAPKi (SB203580), aurora kinase inhibitor (189404), JNK inhibitor (420119), MMPi (GM6001) were from EMD Chemicals (San Diego, Calif.). ERKi (A6355), RAFKi: (GW5074), ammonium chloride (NH4Cl), chloroquine, monensin, cyclohexamide and emetine were from Sigma (Saint Louis, Mo.). HSP90i (geldanamycin) was from AG Scientific (San Diego, Calif.) and imatinib (Gleevec) was purchased from a pharmacy.
Cells were seeded in 6-well tissue culture dishes at a subconfluent density and allowed to attach overnight. For harvesting cell lysates, media was removed, cells were briefly washed with serum-free media and then 1× Tris-glycine SDS sample buffer (Invitrogen, Carlsbad, Calif.) supplemented with 10 mM dithiothreitol (Sigma) was added directly to the wells. Cell lysates were then collected and boiled for 10 minutes. For preparing conditioned media, drug treatments were performed in a minimum volume of growth media (1.5 mL/well). Following 48 hours of incubation, conditioned media was collected, briefly microfuged, mixed with an equal volume of 2× Tris-glycine SDS sample buffer (Invitrogen, Carlsbad, Calif.) supplemented with 20 mM dithiothreitol (Sigma) and boiled for 10 minutes. For cell lysates, samples were quantified and an equal quantity of protein/lane was resolved on 4-20% gradient polyacrylamide gels (Invitrogen) and then transferred to nitrocellulose filters (Invitrogen). The volume of conditioned media loaded/lane was adjusted based on the protein concentration determined in the respective cell lysates. Immunoblotting was performed using standard procedures and the following primary antibodies: MARTI (sc-20032), TYRP2 (sc-25544), TYRP1 (sc-25543), PMEL17 (sc-15010), MAGEA1 (sc-20033), MCSP (sc-20162), MTf (sc-26651), MCAM (sc-18942), pp-ERK (sc-7976) and ERK (sc-94) (preceding antibodies were purchased from Santa Cruz Biotechnologies, Santa Cruz, Calif.), GPNMB (AF2550; R & D Systems, Minneapolis Minn.), actin (A5060; Sigma). Following incubation with the appropriate horseradish peroxidase-conjugated secondary antibodies, enhanced chemiluminescence (GE Healthcare, Chalfont St. Giles, United Kingdom) was used for detection.

phospho-ERK (pp-ERK) = assay: Immunoblotting for phospho-ERK (level of ERK activation)
Description: In the experiment presented in FIG. 2A, potential inhibition of the ERK pathway was investigated by immunoblotting for phospho-ERK (pp-ERK), which represents the active form of this signaling molecule.

[1] = tested on: GPNMB surface expression on A375 melanoma cells; assay: Flow cytometry of GPNMB surface expression, A375 cells; conditions: for GPNMB surface expression, flow cytometry GeoMean: A375, CR011 (anti-GPNMB) primary antibody
Method: (§1) Cells were seeded in 6-well tissue culture dishes at a subconfluent density and allowed to attach overnight. The following day, cells were treated as indicated in the figures/legends, harvested with versene (Invitrogen), washed with PBS and incubated with primary antibody (10 μg/mL) diluted in staining buffer (PBS pH 7.4, 4% FBS, 0.1% sodium azide) for 30 minutes on ice. […] After incubation with primary antibody, samples were washed with staining buffer and then incubated with secondary antibody (PE-conjugated anti-human antibody; 1:100) for 30 minutes on ice. After incubation, samples were washed with staining buffer and examined on a Becton Dickinson FACSCalibur flow cytometer (BD Immunocytometry Systems, San Jose, Calif.). Data analysis was performed with Becton Dickinson Cell Quest software and the geometric mean fluorescence intensity (GeoMean) was determined for each sample.
(§2) For the data shown in Table 37, flow cytometry was performed on intact, non-permeabilized cells using the indicated primary monoclonal antibodies. […] The results are reported as GeoMeans. […] For the data shown in the bottom left panel of Table 37, SKMEL2 (melanoma) cells were treated with MEKi (U0126; 10 uM), imatinib (20 uM), p38i (p38 MAPKi SB202190; 50 uM), NH4Cl (ammonium chloride; 20 mM) or CLQ (chloroquine; 20 uM) for 48 hours prior to analysis. For the data shown in the bottom right panel of Table 37, WM2664 (melanoma) cells were treated with MON (monensin) or MMPi (GM6001) for 48 hours prior to analysis.

[2] = tested on: GPNMB surface expression on SF539 glioblastoma cells; assay: Flow cytometry of GPNMB surface expression, SF539 cells; conditions: SF549, CR011 (anti-GPNMB) primary antibody
Method: as §1, §2

[3] = tested on: GPNMB surface expression on SKMEL2 melanoma cells; assay: Flow cytometry of GPNMB surface expression, SKMEL2 cells; conditions: for GPNMB surface expression, flow cytometry GeoMean: SKMEL2, CR011 (anti-GPNMB) primary antibody, MEKi (U0126) 10 uM, imatinib 20 uM, p38i (SB202190) 50 uM; for GPNMB surface-expression: SKMEL2 cells, 48 hours (Table 37, bottom left)
Method: as §1
For the data shown in Table 37, flow cytometry was performed on intact, non-permeabilized cells using the indicated primary monoclonal antibodies. […] The results are reported as GeoMeans. For the data shown in the top panel of Table 37, A375 (melanoma) or SF539 (glioblastoma) cells were treated with the indicated concentrations of MEKi (U0126), RAFKi (553013) or ERKi (FR180204) for 12, 24 or 48 hours prior to analysis. For the data shown in the bottom left panel of Table 37, SKMEL2 (melanoma) cells were treated with MEKi (U0126; 10 uM), imatinib (20 uM), p38i (p38 MAPKi SB202190; 50 uM), NH4Cl (ammonium chloride; 20 mM) or CLQ (chloroquine; 20 uM) for 48 hours prior to analysis. For the data shown in the bottom right panel of Table 37, WM2664 (melanoma) cells were treated with MON (monensin) or MMPi (GM6001) for 48 hours prior to analysis.

[4] = melanoma lines SKMEL2, A375, WM2664, MEWO, 48 hours (FIG. 6A)

With `Cc1ccc2nc(NCCN)c3ncc(C)n3c2c1` [BMS345541] as the molecule, how does the “increase of GPNMB expression in the screen” value (shortened to “increase of GPNMB expression”) (GPNMB) read?
The value was “ineffective”.

What does the source list for `Nc1n[nH]c2nnc(-c3c(-c4ccccc4)nn4ccccc34)cc12` [FR180204, 5-(2-phenylpyrazolo[1,5-a]pyridin-3-yl)-1H-pyrazolo[3,4-c]pyridazin-3-amine]?
GPNMB induction (immunoblotting) (GPNMB; A375 cells, only following an exposure time of 48 hours (FIG. 3B, bottom)): strong induction; GPNMB induction (immunoblotting) (GPNMB; SKMEL2 or SF539 cells (FIG. 3B, bottom)): Little or no GPNMB induction; inhibition of the ERK pathway (phospho-ERK levels) (phospho-ERK (pp-ERK); FIG. 3B bottom, A375, SKMEL2, SF539): relatively weak inhibition; GPNMB surface expression, flow cytometry GeoMean ([1]; ERKi (FR180204) 3.1 uM, 12 h): 13.0; GPNMB surface expression, flow cytometry GeoMean ([1]; ERKi (FR180204) 3.1 uM, 24 h): 13.5; GPNMB surface expression, flow cytometry GeoMean ([1]; ERKi (FR180204) 3.1 uM, 48 h): 13.1; GPNMB surface expression, flow cytometry GeoMean ([1]; ERKi (FR180204) 50 um, 12 h): 13.0; GPNMB surface expression, flow cytometry GeoMean ([1]; ERKi (FR180204) 50 um, 24 h): 14.9; GPNMB surface expression, flow cytometry GeoMean ([1]; ERKi (FR180204) 50 um, 48 h): 50.3; GPNMB surface expression ([1]; A375 melanoma, 12, 24 or 48 hours (Table 37, top)): induced GPNMB surface expression; GPNMB surface expression, flow cytometry GeoMean ([2]; ERKi (FR180204) 3.1 uM, 12 h): 32.6; GPNMB surface expression, flow cytometry GeoMean ([2]; ERKi (FR180204) 3.1 uM, 24 h): 33.7; GPNMB surface expression, flow cytometry GeoMean ([2]; ERKi (FR180204) 3.1 uM, 48 h): 32.6; GPNMB surface expression, flow cytometry GeoMean ([2]; ERKi (FR180204) 50 um, 12 h): 31.3; GPNMB surface expression, flow cytometry GeoMean ([2]; ERKi (FR180204) 50 um, 24 h): 30.7; GPNMB surface expression, flow cytometry GeoMean ([2]; ERKi (FR180204) 50 um, 48 h): 30.6

With `O=c1cc(N2CCOCC2)oc2c(-c3ccccc3)cccc12` [LY94002] as the molecule, how does the “increase of GPNMB expression” value (GPNMB) read?
The value was “ineffective”.

`Nc1ncn([C@@H]2O[C@H](CO)[C@@H](O)[C@H]2O)c(=O)n1` [Mab 5-AZA] was tested. Which “increase of GPNMB expression” value (GPNMB) did it give?
Its value is “ineffective”.

With `Oc1ccc(-c2nc(-c3ccc(F)cc3)c(-c3ccncc3)[nH]2)cc1` [SB202190, 4-[4-(4-Fluorophenyl)-5-(4-pyridinyl)-1H-imidazol-2-yl]phenol] as the molecule, how does the “GPNMB surface expression, flow cytometry GeoMean” value [3] read?
The value was 85.1.

`Cl.N` [ammonium chloride] was tested. Which “GPNMB induction compared with MTf and MCAM” value (GPNMB; NH4Cl 20 mM, 48 hours (FIG. 6E)) did it give?
The value was “more highly induced”.

And the “GPNMB detection with protein synthesis inhibitor” value (GPNMB; ammonium chloride (50 mM) along with protein synthesis inhibitor, 1 hour (FIG. 6D))?
Its value is “readily detectable”.

What about the “GPNMB expression (immunoblotting)” value (GPNMB; [4]) of the same molecule?
The value was “induced”.

And the “GPNMB surface expression, flow cytometry GeoMean” value [3]?
The value was 93.8.

What about the GPNMB surface-expression [3] of the same molecule?
The GPNMB surface-expression was “increase GPNMB surface-expression”.

With `O=C(/C=C/c1cccc(S(=O)(=O)Nc2ccccc2)c1)NO` [belinostat] as the molecule, how does the “increase of GPNMB expression” value (GPNMB) read?
Its value is “ineffective”.

For `CC(C)C[C@H](NC(=O)[C@H](Cc1ccccc1)NC(=O)c1cnccn1)B(O)O` [bortezomib], which “increase of GPNMB expression” value (GPNMB) is on record?
Its value is “ineffective”.

With `O=NN(CCCl)C(=O)NCCCl` [carmustine] as the molecule, how does the “increase of GPNMB expression” value (GPNMB) read?
Its value is “ineffective”.

Which “GPNMB expression (immunoblotting)” value (GPNMB; [4]) does the source give for `CCN(CC)CCCC(C)Nc1ccnc2cc(Cl)ccc12` (stereo not drawn) [chloroquine] here?
The value was “induced”.

And the “GPNMB surface expression, flow cytometry GeoMean” value [3]?
The value was 91.2.

What about the GPNMB surface-expression [3] of the same molecule?
The GPNMB surface-expression was “increase GPNMB surface-expression”.

With `N.N.[Cl][Pt][Cl]` [cisplatin] as the molecule, how does the “increase of GPNMB expression” value (GPNMB) read?
Its value is “ineffective”.

How did the “GPNMB expressed after protein synthesis inhibition” value (GPNMB) turn out when `C[C@@H]1C[C@@H]([C@H](O)CC2CC(=O)NC(=O)C2)C(=O)[C@@H](C)C1` [cyclohexamide] was run?
The value was “little or no GPNMB”.

Which “GPNMB expressed after protein synthesis inhibition” value (GPNMB) does the source give for `CC[C@H]1CN2CCc3cc(OC)c(OC)cc3[C@@H]2C[C@@H]1C[C@H]1NCCc2cc(OC)c(OC)cc21` [emetine] here?
The value was “little or no GPNMB”.

For `Cc1ccc(NC(=O)c2ccc(CN3CCN(C)CC3)cc2)cc1Nc1nccc(-c2cccnc2)n1` [imatinib], which “GPNMB expression (immunoblotting)” value (GPNMB; [4]) is on record?
Its value is “induced”.

And the “GPNMB expression (immunoblotting)” value (GPNMB; variety of melanoma and glioblastoma cell lines, 48 hours (FIG. 6B, 6C))?
The value was “strongly induced; also recorded: robust GPNMB expression”.

What about the phospho-ERK (phospho-ERK (pp-ERK); melanoma and glioblastoma cell lines, imatinib 20 μM, 48 hours (FIG. 6B)) of the same molecule?
Its phospho-ERK is “without inhibiting phospho-ERK”.

What about the “GPNMB surface expression, flow cytometry GeoMean” value [3] of the same molecule?
Its value is 103.7.

What about the GPNMB surface-expression [3] of the same molecule?
Its GPNMB surface-expression is “increase GPNMB surface-expression”.

For `CC(=O)O[C@H]1C(=O)[C@@]2(C)[C@H]([C@H](OC(=O)c3ccccc3)[C@]3(O)C[C@H](OC(=O)[C@H](O)[C@@H](NC(=O)c4ccccc4)c4ccccc4)C(C)=C1C3(C)C)[C@]1(OC(C)=O)CO[C@@H]1C[C@@H]2O` [paclitaxel], which “increase of GPNMB expression” value (GPNMB) is on record?
The value was “ineffective”.

With IFNα as the molecule, how does the “increase of GPNMB expression” value (GPNMB) read?
The value was “ineffective”.

Which “increase of GPNMB expression” value (GPNMB) does the source give for “IFNγ: IFNγ, compound examined in the screen” here?
Its value is “ineffective”.
